Results: PubChem BioAssay AID1996
Values after ≈ are worked out from the molar mass of the structure shown.

Conditions: buffer; pH 7.4; 200.0 µM

solubility kinetic [µg/mL]	SMILES
0.5 (≈ 1.64 µM)	CC1CCC(NC(=O)C(=O)Nc2ccc3c(c2)OCO3)CC1 (centres undefined)
> 39.5	COc1ccccc1CNC(=O)COC(=O)C1CC1
0.8 (≈ 2.24 µM)	CC(=O)Nc1cccc(Oc2nc(-c3ccccn3)nc3ccccc23)c1
7.6 (≈ 24.8 µM)	CCCOc1cccc(C(=O)Nc2cccc3ncccc23)c1
65.8 (≈ 140 µM)	O=C(CN1C(=O)NC2(CCCC2)C1=O)Nc1cc(S(=O)(=O)N2CCCCC2)ccc1Cl
2.5 (≈ 7.87 µM)	O=c1ccc2ccc(Oc3ccc([N+](=O)[O-])cc3Cl)cc2o1
5.7 (≈ 23.2 µM)	Fc1cccc(Nc2ncnc3sccc23)c1
41.6 (≈ 120 µM)	O=C(OC(C(=O)NC1CCCCC1)c1ccccc1F)c1ccco1 (centres undefined)
0.5 (≈ 1.6 µM)	CCC(C)c1ccc(NC(=O)c2[nH]c(C)c(C(C)=O)c2C)cc1 (centres undefined)
44.7 (≈ 143 µM)	O=C(COC(=O)C1=COCCO1)NCc1ccc(Cl)cc1
38.3 (≈ 110 µM)	NC(=O)C1CCCN(C(=O)CNC(=O)C23CC4CC(CC(C4)C2)C3)C1 (centres undefined)
4.2 (≈ 16.6 µM)	O=C(/C=C/c1ccc2c(c1)OCO2)c1ccccn1
27.2 (≈ 88.5 µM)	CC(=O)Oc1ccccc1/C=C/c1nc2ccccc2c(=O)o1
4.2 (≈ 13.1 µM)	CCOC(=O)CSc1nc2ccccc2c(=O)n1CC(C)C
< 0.7	O=C(NCc1ccc(Cl)cc1)c1cc2ccccc2oc1=O
> 50	COc1ccccc1C(=O)NCC(=O)NNC(=O)c1cccs1
10.8 (≈ 28.4 µM)	NC(=O)C1CCN(C(=O)COc2ccc3c(c2)oc(=O)c2ccccc23)CC1
18.5 (≈ 67.1 µM)	Cc1ccc(Cl)cc1NC(=O)NCc1cccnc1
43.8 (≈ 140 µM)	Cc1csc(SCC(=O)Nc2sccc2C(N)=O)n1
> 46.9	COc1ccc(NC(=O)N2CCc3ccccc3C2)cc1OC
32.6 (≈ 91.2 µM)	O=C(Oc1c(-c2ccccc2)c(=O)n2c3c(cccc13)CC2)c1ccco1
31.8 (≈ 111 µM)	COc1ccc(CCC(C)NCc2ccc(F)cc2)cc1 (centres undefined)
17 (≈ 45.2 µM)	CN(Cc1ccccc1F)C(=O)c1ccccc1Sc1ccccc1C#N
> 43.4	CC(C)(C)N(Cc1ccccc1)C(=O)COC(=O)C1CC1

solubility kinetic [µg/mL]	SMILES
37.6 (≈ 134 µM)	COc1ccc(NC(=O)C#Cc2ccccc2)cc1OC
7.5 (≈ 26.7 µM)	Clc1ccccc1C1Nc2cccc3cccc(c23)N1
> 46.5	O=C(Nc1c[nH]c(=O)[nH]c1=O)c1ccccc1Br
> 49.4	Cc1cccc(-c2noc(CCCC(=O)NCC3CCCO3)n2)c1 (centres undefined)
32.7 (≈ 105 µM)	COc1ccc(CCNc2nc(C)cc(C)c2C#N)cc1OC
> 57.4	CC1(C)CC2(CCO1)OC(=O)CC2C(=O)Nc1ccc(Cl)cc1[N+](=O)[O-] (centres undefined)
36.8 (≈ 125 µM)	Cc1ccc(Sc2cc(C)nc(-c3ccccn3)n2)cc1
> 38.1	O=C(Nc1ccc(F)c([N+](=O)[O-])c1)C1CCCO1 (centres undefined)
47.7 (≈ 134 µM)	NC(=O)C1CCN(C(=O)/C=C/c2cc(Br)ccc2F)CC1
> 36.8	O=C(NCC1CCCO1)c1cc2ccccc2o1 (centres undefined)
> 44.8	Cc1cc(C)c(C#N)c(SCc2ccc(C(=O)O)cc2)n1
> 30.8	CCOC(=O)CNC(=S)NN(C)C
> 45.2	CN1CCN(C2CC(=O)N(CCc3ccccc3)C2=O)CC1 (centres undefined)
32.5 (≈ 149 µM)	S=C1NC2(CCCC2)Nc2ccccc21
> 53.6	O=C1CC2(CCN(C(=O)c3ccc(F)c(F)c3)CC2)Oc2ccccc21
28.5 (≈ 127 µM)	O=C(/C=C/c1cccnc1)c1ccc(O)cc1
1.3 (≈ 4.88 µM)	Cc1ccc2cc3cc(C(=O)NC4CC4)oc3nc2c1
63.9 (≈ 148 µM)	NS(=O)(=O)c1ccc(CCNC(=O)C2CCN(C(=O)Nc3ccccc3)CC2)cc1
41.3 (≈ 146 µM)	O=c1cc(CSCc2ccc(Cl)cc2)[nH]c(=O)[nH]1
4.7 (≈ 15.2 µM)	CC(C)C(NC(=O)c1cccs1)C(=O)NC1CCCCC1 (centres undefined)
> 41.6	Cc1ccc(NC(=O)CSc2ncccn2)cc1F
> 63.7	Cc1ccc(C(=O)OCC(=O)N2CCCCCC2)cc1S(=O)(=O)N1CCOCC1
26 (≈ 142 µM)	Cc1[nH]c(=O)c(C#N)c(C)c1Cl
< 0.7	Cc1ccc2c(=O)cc(C(=O)NCc3ccccc3)oc2c1C

solubility kinetic [µg/mL]	SMILES
> 52.1	COc1ccc(CNC(=O)C2CC(C)=C(C)CC2C(=O)O)cc1OC (centres undefined)
38.5	CCN(CC)CCOC(=O)/C=C/c1ccccc1.Cl
25.1 (≈ 137 µM)	Cc1ccc(C(=O)NCC(=O)O)o1
3 (≈ 8.62 µM)	Cc1cc(NC(=O)c2cc(-c3ccc(Br)cc3)on2)no1
6.7 (≈ 19.4 µM)	COc1cccc(/C=C/C(=O)OCC(=O)NC2CCCCCCC2)c1
30.5 (≈ 139 µM)	C/C(=N\O)c1cc(Cl)cc(Cl)c1O
> 34.2	COc1ccc(NC(=O)c2cccnc2)cc1
14.8 (≈ 45.5 µM)	COc1ccc(N2CCC(CNC(=O)Nc3ccccc3)C2)cc1 (centres undefined)
> 46.3	O=C(c1ccc(Cl)s1)N1CCN(c2ncccn2)CC1
> 44	N#Cc1ccc(C(=O)N2CCN(c3ncccn3)CC2)cc1
19.9 (≈ 56.3 µM)	CCOc1ccc(NC(=O)COC(=O)Cn2cnc3ccccc32)cc1
> 45.4	CCS(=O)(=O)N1CCN=C1SCc1cccc(F)c1
37.4 (≈ 133 µM)	Cc1ccc([N+](=O)[O-])cc1N=C1C(=O)Nc2ccccc21
13.4 (≈ 37.7 µM)	COC(=O)c1ccccc1NC(=S)N1CCN(c2ccccc2)CC1
> 49.3	CCOc1ccc(NC(=O)C2CC(=O)N(Cc3ccco3)C2)cc1 (centres undefined)
3.3 (≈ 9.45 µM)	O=C(Nc1c(-c2ccc(F)cc2)nc2ccccn12)c1ccc(F)cc1
> 49.5	C=CCn1c(Oc2ccccc2F)nc2c1c(=O)n(C)c(=O)n2C
> 46.4	O=S(=O)(Nc1ccc(F)cc1)c1cccc2nsnc12
> 45.5	COc1ccc(C(=O)NCc2c(C)oc(C)c2C(=O)O)cc1
> 47.7	Cc1ccc(SCCOCCN2CCOCC2)cc1.Cl
> 39.5	Nc1ccccc1C(=O)NCCCN1CCOCC1
> 42.9	COC(=O)C(Cc1c[nH]c2ccccc12)NC(=O)C1CC1 (centres undefined)
> 41.3	Cc1c(O)ccc2c(CN3CCOCC3)cc(=O)oc12

Further lines, the molecule ahead of its results:

SMILES	solubility kinetic [µg/mL]
Cc1cc(C)cc(C(=O)N2CCN(Cc3ccc4c(c3)OCO4)CC2)c1	> 52.9
COc1ccc(OC)c(N2C(=O)CC(NNC(=O)c3ccc4c(c3)OCO4)C2=O)c1 (centres undefined)	> 62
CC1Cc2ccccc2N1S(=O)(=O)c1cccc(C(=O)NCc2ccco2)c1 (centres undefined)	14.7 (≈ 37.1 µM)
Cc1cc(C)c2c3c(oc2n1)C(=O)N(c1cccc(Cl)c1)CC(=O)N3	0.7 (≈ 1.97 µM)
COc1ccc(/C(C)=N/N2CCOCC2)c(O)c1	> 37.5
Cc1cc(=O)[nH]c(Nc2ccccc2C)n1	> 32.3
CC(NC(=O)NC(=O)c1ccc(Cl)cc1)c1ccccc1 (centres undefined)	0.4 (≈ 1.32 µM)
CCOc1ccccc1NC(=O)/C(C#N)=C/c1cccnc1	18.8 (≈ 64.1 µM)
Cc1nc2ccccc2cc1C(=O)Nc1ccccc1Cl	6.7 (≈ 22.6 µM)
COc1cccc(NS(=O)(=O)c2ccc3c(c2)CCN3C(C)=O)c1	3.3 (≈ 9.53 µM)
CC1=CC(=O)C(C(C)C)=C/C1=N/OS(=O)(=O)c1ccccc1	7.9 (≈ 24.7 µM)
Cc1cnc(C(=O)NCc2ccc(Cl)cc2Cl)cn1	7.7 (≈ 26 µM)
Cn1c(NC(=O)c2ccc(F)cc2)c(-c2ccccn2)c(=O)c2ccccc21	6.2 (≈ 16.6 µM)
COc1ccc(NC(=O)c2cc3ccccc3cc2O)cc1	1.5 (≈ 5.11 µM)
CC(=O)Nc1cc([As](=O)(O)O)ccc1O	> 41.3
O=C(Nc1cccc(-c2cn3cccnc3n2)c1)Nc1ccccc1F	1.7 (≈ 4.89 µM)
Cc1cccc(C(=O)Nc2scc(-c3ccc(Br)cc3)c2C(=O)O)c1	3.6 (≈ 8.65 µM)
COc1ccc(NC(=O)/C=C/c2ccc(OC)c(OC)c2)cn1	11.3 (≈ 35.9 µM)
COc1ccc(N2C(=O)CC(C)(C)CC2=O)cc1OC	> 41.6
Cc1cc(C)nc(SCC(=O)Nc2ccc3c(c2)OCO3)n1	45.8 (≈ 144 µM)
O=C(COC(=O)Cc1c(Cl)cccc1Cl)NC1CCCC1	> 49.5
CCc1ccc(C)[n+](CC(=O)c2cccs2)c1.[Cl-]	> 42.3
COc1ccc(CC(=O)Nc2ccccc2N2CCCC2)cc1OC	> 51.1
Cc1ccc(CNC(=O)C2CC(=O)N(C3CCCC3)C2)cc1 (centres undefined)	41.2 (≈ 137 µM)

SMILES	solubility kinetic [µg/mL]
CN(C)/C=C/C(=O)c1ccc(Br)s1	> 39
N#C/C(=C\c1c(N2CCCCCC2)nc2ccccn2c1=O)C(N)=O	> 50.6
O=C(Nc1ccccc1)Nc1scc2c1c(=O)oc1ccccc12	< 0.4
Cc1[nH]c2ccccc2c1C(=O)C(=O)N1CC2CC(C1)c1cccc(=O)n1C2 (centres undefined)	> 56.3
Cc1ccc(C(=O)Nc2sc3c(c2C(=O)O)CCC(C)C3)o1 (centres undefined)	> 47.9
COc1ccc(/C=C/C(=O)OCC(=O)N2CCCCCC2)cc1OC	37.7 (≈ 109 µM)
CC(=O)Oc1cc(C(=O)OCC(=O)N2CCc3ccccc3C2)cc(OC(C)=O)c1OC(C)=O	> 70.4
CSc1nc2sc3c(c2c(=O)n1CC(C)C)CC(C)(C)OC3	< 0.4
C1=C(c2c[nH]c3ccccc23)CCN(Cc2ccccc2)C1	7.2 (≈ 25 µM)
CC(Cc1ccccc1)NC(=O)Cc1ccc([N+](=O)[O-])cc1 (centres undefined)	22.6 (≈ 75.8 µM)
O=C(O)CC(NC(=O)Cc1ccccc1)c1ccccc1 (centres undefined)	27.4 (≈ 96.7 µM)
CCOc1ccccc1-n1cnc(C#N)c1N	> 34.2
S=C(NCc1ccncc1)Nc1cc(Cl)cc(Cl)c1	5.6 (≈ 17.9 µM)
Clc1cccc(-c2nc(NCC3CCCO3)c3ccccc3n2)c1 (centres undefined)	1.2 (≈ 3.53 µM)
COc1ccc(NC(=O)C2CCCN(S(C)(=O)=O)C2)cc1Cl (centres undefined)	8.4 (≈ 24.2 µM)
CC(=O)Nc1ccc(C(=O)/C=C/c2ccc[nH]2)cc1	2.9 (≈ 11.4 µM)
Nc1nonc1OCCCCOc1nonc1N	21.1 (≈ 82.4 µM)
O=[N+]([O-])c1ccccc1OCCN1CCOCC1	> 37.8
CCN(C(=O)COC(=O)c1cc(OC)ccc1Br)C1CCS(=O)(=O)C1 (centres undefined)	> 65.1
CCCC1(CCC)NC(=O)N(CC(=O)N2CCc3ccccc32)C1=O	> 51.5
O=Cc1cc([N+](=O)[O-])ccc1N1CCN(Cc2ccc3c(c2)OCO3)CC1	12.2 (≈ 33 µM)
CC(NC(=S)Nc1ccccc1C(F)(F)F)C1CC2CCC1C2 (centres undefined)	2.1 (≈ 6.13 µM)
O=C(Nc1ccc(F)cc1F)NC1CCCc2ccccc21 (centres undefined)	0.3 (≈ 0.992 µM)
CC(=O)c1cccc(NC(=O)NCCc2ccc(Cl)cc2)c1	1.6 (≈ 5.05 µM)
